In the supplement of paper PMC10627819:

Key:
Test in all cases: Bliss interaction score (quartile over a dose matrix) (fitness difference); higher = more antagonism (negative = synergy)
[1] = test system: S. pneumoniae D39V
Outline: (§1)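 Fitness was OD595 at entry into stationary phase divided by the plate's robust no-drug mean and capped at 1; single-drug fitness was inferred from combination data. The Bliss score is observed minus expected (product) fitness, summarised by quartiles over technical, biological and donor/recipient replicates.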

[2] = test system: S. aureus DSM 20231
Outline: as §1

[3] = test system: S. aureus Newman
Outline: as §1

[4] = test system: B. subtilis 168
Outline: as §1
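Also: first quartile when negative (synergy) and third quartile when positive (antagonism).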

With `CC[C@H]1OC(=O)[C@H](C)[C@@H](O[C@H]2C[C@@](C)(OC)[C@@H](O)[C@H](C)O2)[C@H](C)[C@@H](O[C@@H]2O[C@H](C)C[C@H](N(C)C)[C@H]2O)[C@](C)(O)C[C@@H](C)CN(C)[C@H](C)[C@@H](O)[C@]1(C)O` [Azithromycin] + CO[C@@]12[C@H](COC(N)=O)C3=C(C(=O)C(C)=C(N)C3=O)N1C[C@@H]1N[C@@H]12 [MitomycinC] the Bliss interaction score [1] was -0.0779, the Bliss interaction score [2] was -0.0652 and the Bliss interaction score [3] was 0.0499. It also gave a Bliss interaction score [4] of 0.116.
`CC[C@H]1OC(=O)[C@H](C)[C@@H](O[C@H]2C[C@@](C)(OC)[C@@H](O)[C@H](C)O2)[C@H](C)[C@@H](O[C@@H]2O[C@H](C)C[C@H](N(C)C)[C@H]2O)[C@](C)(O)C[C@@H](C)CN(C)[C@H](C)[C@@H](O)[C@]1(C)O` [Azithromycin] + CO[C@H]1/C=C/O[C@@]2(C)Oc3c(C)c(O)c4c(O)c(c(/C=N/N5CCN(C)CC5)c(O)c4c3C2=O)NC(=O)/C(C)=C\C=C\[C@H](C)[C@H](O)[C@@H](C)[C@@H](O)[C@@H](C)[C@H](OC(C)=O)[C@@H]1C [Rifampicin] was tested, and the Bliss interaction score [1] was -0.0821, the Bliss interaction score [2] was 0.0531 and the Bliss interaction score [3] was 0.0263. For the same compound, the Bliss interaction score [4] was 0.0851.
For `CC[C@H]1OC(=O)[C@H](C)[C@@H](O[C@H]2C[C@@](C)(OC)[C@@H](O)[C@H](C)O2)[C@H](C)[C@@H](O[C@@H]2O[C@H](C)C[C@H](N(C)C)[C@H]2O)[C@](C)(O)C[C@@H](C)CN(C)[C@H](C)[C@@H](O)[C@]1(C)O` [Azithromycin] + C[C@@H](O)[C@H]1C(=O)N2C(C(=O)O)=C(SCCNC=N)C[C@H]12 [Imipenem], the Bliss interaction score [1] was 0.0485, the Bliss interaction score [2] was -0.0324 and the Bliss interaction score [3] was -0.0196. The Bliss interaction score [4] was 0.105.
Compound `CC[C@H]1OC(=O)[C@H](C)[C@@H](O[C@H]2C[C@@](C)(OC)[C@@H](O)[C@H](C)O2)[C@H](C)[C@@H](O[C@@H]2O[C@H](C)C[C@H](N(C)C)[C@H]2O)[C@](C)(O)C[C@@H](C)CN(C)[C@H](C)[C@@H](O)[C@]1(C)O` [Azithromycin] + Clc1ccc(COC(Cn2ccnc2)c2ccc(Cl)cc2Cl)c(Cl)c1 [Miconazole] has a Bliss interaction score [1] of 0.0855, a Bliss interaction score [2] of -0.0368 and a Bliss interaction score [3] of 0.0828. For the same compound, the Bliss interaction score [4] was 0.0679.
In the case of `CC[C@H]1OC(=O)[C@H](C)[C@@H](O[C@H]2C[C@@](C)(OC)[C@@H](O)[C@H](C)O2)[C@H](C)[C@@H](O[C@@H]2O[C@H](C)C[C@H](N(C)C)[C@H]2O)[C@](C)(O)C[C@@H](C)CN(C)[C@H](C)[C@@H](O)[C@]1(C)O` [Azithromycin] + N[C@@H]1CONC1=O [CycloserineD], the Bliss interaction score [1] is reported as 0.135, the Bliss interaction score [2] is reported as -0.103 and the Bliss interaction score [3] is reported as 0.0743. The Bliss interaction score [4] was 0.0718.
Compound `CC[C@H]1OC(=O)[C@H](C)[C@@H](O[C@H]2C[C@@](C)(OC)[C@@H](O)[C@H](C)O2)[C@H](C)[C@@H](O[C@@H]2O[C@H](C)C[C@H](N(C)C)[C@H]2O)[C@](C)(O)C[C@@H](C)CN(C)[C@H](C)[C@@H](O)[C@]1(C)O` [Azithromycin] + O=C1CN(/N=C/c2ccc([N+](=O)[O-])o2)C(=O)N1 [Nitrofurantoin] has a Bliss interaction score [1] of -0.215, a Bliss interaction score [2] of -0.0881 and a Bliss interaction score [3] of -0.0835. For the same compound, the Bliss interaction score [4] was -0.117.
`CC[C@H]1OC(=O)[C@H](C)[C@@H](O[C@H]2C[C@@](C)(OC)[C@@H](O)[C@H](C)O2)[C@H](C)[C@@H](O[C@@H]2O[C@H](C)C[C@H](N(C)C)[C@H]2O)[C@](C)(O)C[C@@H](C)CN(C)[C@H](C)[C@@H](O)[C@]1(C)O` [Azithromycin] + O=C(O)[C@H]1/C(=C/CO)O[C@@H]2CC(=O)N21 [Clavulanic] was tested, and the Bliss interaction score [1] was -0.0573, the Bliss interaction score [2] was -0.136 and the Bliss interaction score [3] was 0.239. It also gave a Bliss interaction score [4] of 0.115.
Compound `CC[C@H]1OC(=O)[C@H](C)[C@@H](O[C@H]2C[C@@](C)(OC)[C@@H](O)[C@H](C)O2)[C@H](C)[C@@H](O[C@@H]2O[C@H](C)C[C@H](N(C)C)[C@H]2O)[C@](C)(O)C[C@@H](C)CN(C)[C@H](C)[C@@H](O)[C@]1(C)O` [Azithromycin] + Oc1cc(Cl)ccc1Oc1ccc(Cl)cc1Cl [Triclosan] has a Bliss interaction score [1] of -0.0322, a Bliss interaction score [2] of -0.133 and a Bliss interaction score [3] of -0.0316. It also gave a Bliss interaction score [4] of -0.0359.
Compound `CC1=C(C(=O)O)N2C(=O)[C@@H](NC(=O)[C@H](N)c3ccccc3)[C@H]2SC1` [Cephalexin] + CC1(C)S[C@@H]2[C@H](NC(=O)Cc3ccccc3)C(=O)N2[C@H]1C(=O)O [PenicillinG] has a Bliss interaction score [1] of -0.199, a Bliss interaction score [2] of -0.0449 and a Bliss interaction score [3] of -0.0472. It also gave a Bliss interaction score [4] of 0.0543.
With `CC1=C(C(=O)O)N2C(=O)[C@@H](NC(=O)[C@H](N)c3ccccc3)[C@H]2SC1` [Cephalexin] + CC(=O)O[C@H]1C[C@@]2(C)[C@@H](C[C@@H](O)[C@H]3[C@@]4(C)CC[C@@H](O)[C@@H](C)[C@@H]4CC[C@@]32C)/C1=C(\CCC=C(C)C)C(=O)O [Fusidic acid] the Bliss interaction score [1] was 0.143, the Bliss interaction score [2] was 0.0436 and the Bliss interaction score [3] was 0.0547. For the same compound, the Bliss interaction score [4] was 0.0683.
With `CC1=C(C(=O)O)N2C(=O)[C@@H](NC(=O)[C@H](N)c3ccccc3)[C@H]2SC1` [Cephalexin] + CC(C1CCC(C(O1)OC2C(CC(C(C2O)OC3C(C(C(CO3)(C)O)NC)O)N)N)N)NC [Gentamicin] the Bliss interaction score ([1]; main component drawn) was -0.132, the Bliss interaction score ([2]; main component drawn) was -0.0632 and the Bliss interaction score ([3]; main component drawn) was -0.018. For the same compound, the Bliss interaction score ([4]; main component drawn) was -0.0985.
Compound `CC1=C(C(=O)O)N2C(=O)[C@@H](NC(=O)[C@H](N)c3ccccc3)[C@H]2SC1` [Cephalexin] + CCC[C@@H]1C[C@@H](C(=O)N[C@@H]([C@H]2O[C@H](SC)[C@H](O)[C@@H](O)[C@H]2O)[C@H](C)Cl)N(C)C1 [Clindamycin] has a Bliss interaction score [1] of 0.14, a Bliss interaction score [2] of -0.0563 and a Bliss interaction score [3] of 0.138. It also gave a Bliss interaction score [4] of -0.0509.
`CC1=C(C(=O)O)N2C(=O)[C@@H](NC(=O)[C@H](N)c3ccccc3)[C@H]2SC1` [Cephalexin] + CC[C@H]1OC(=O)[C@H](C)C(=O)[C@H](C)[C@@H](O[C@@H]2O[C@H](C)C[C@H](N(C)C)[C@H]2O)[C@](C)(OC)C[C@@H](C)C(=O)[C@H](C)[C@H]2N(CCCCn3cnc(-c4cccnc4)c3)C(=O)O[C@]12C [Telithromycin] showed a Bliss interaction score [1] of 0.0359, a Bliss interaction score [2] of 0.0639 and a Bliss interaction score [3] of 0.0476. It also gave a Bliss interaction score [4] of 0.0293.
For `CC1=C(C(=O)O)N2C(=O)[C@@H](NC(=O)[C@H](N)c3ccccc3)[C@H]2SC1` [Cephalexin] + CC[C@H]1OC(=O)[C@H](C)[C@@H](O[C@H]2C[C@@](C)(OC)[C@@H](O)[C@H](C)O2)[C@H](C)[C@@H](O[C@@H]2O[C@H](C)C[C@H](N(C)C)[C@H]2O)[C@](C)(O)C[C@@H](C)C(=O)[C@H](C)[C@@H](O)[C@]1(C)O [Erythromycin], the Bliss interaction score [1] was 0.0656, the Bliss interaction score [2] was -0.0356 and the Bliss interaction score [3] was 0.0826. For the same compound, the Bliss interaction score [4] was -0.0405.
In the case of `CC1=C(C(=O)O)N2C(=O)[C@@H](NC(=O)[C@H](N)c3ccccc3)[C@H]2SC1` [Cephalexin] + CC[C@H]1OC(=O)[C@H](C)[C@@H](O[C@H]2C[C@@](C)(OC)[C@@H](O)[C@H](C)O2)[C@H](C)[C@@H](O[C@@H]2O[C@H](C)C[C@H](N(C)C)[C@H]2O)[C@](C)(OC)C[C@@H](C)C(=O)[C@H](C)[C@@H](O)[C@]1(C)O [Clarithromycin], the Bliss interaction score [1] is reported as 0.0361, the Bliss interaction score [2] is reported as 0.0663 and the Bliss interaction score [3] is reported as 0.0874. The Bliss interaction score [4] was 0.0576.
`CC1=C(C(=O)O)N2C(=O)[C@@H](NC(=O)[C@H](N)c3ccccc3)[C@H]2SC1` [Cephalexin] + CN(C)[C@@H]1C(O)=C(C(N)=O)C(=O)[C@@]2(O)C(O)=C3C(=O)c4c(O)ccc(Cl)c4[C@@](C)(O)[C@H]3C[C@@H]12 [Clortetracycline] was tested, and the Bliss interaction score [1] was 0.0348, the Bliss interaction score [2] was 0.0869 and the Bliss interaction score [3] was 0.104. It also gave a Bliss interaction score [4] of 0.0862.
Compound `CC1=C(C(=O)O)N2C(=O)[C@@H](NC(=O)[C@H](N)c3ccccc3)[C@H]2SC1` [Cephalexin] + CN[C@H](CC(C)C)C(=O)N[C@H]1C(=O)N[C@@H](CC(N)=O)C(=O)N[C@H]2C(=O)N[C@H]3C(=O)N[C@H](C(=O)N[C@H](C(=O)O)c4cc(O)cc(O)c4-c4cc3ccc4O)[C@H](O[C@H]3C[C@](C)(N)[C@@H](O)[C@H](C)O3)c3ccc(c(Cl)c3)Oc3cc2cc(c3O[C@@H]2O[C@H](CO)[C@@H](O)[C@H](O)[C@H]2O[C@H]2C[C@](C)(NCc3ccc(-c4ccc(Cl)cc4)cc3)[C@@H](O)[C@H](C)O2)Oc2ccc(cc2Cl)[C@H]1O [Oritavancin] has a Bliss interaction score [1] of 0.069, a Bliss interaction score [2] of 0.0767 and a Bliss interaction score [3] of 0.104. For the same compound, the Bliss interaction score [4] was 0.0217.
In the case of `CC1=C(C(=O)O)N2C(=O)[C@@H](NC(=O)[C@H](N)c3ccccc3)[C@H]2SC1` [Cephalexin] + CO[C@@]12[C@H](COC(N)=O)C3=C(C(=O)C(C)=C(N)C3=O)N1C[C@@H]1N[C@@H]12 [MitomycinC], the Bliss interaction score [1] is reported as -0.0789, the Bliss interaction score [2] is reported as 0.0608 and the Bliss interaction score [3] is reported as 0.0613. It also gave a Bliss interaction score [4] of -0.0415.
In the case of `CC1=C(C(=O)O)N2C(=O)[C@@H](NC(=O)[C@H](N)c3ccccc3)[C@H]2SC1` [Cephalexin] + COc1cccc2c1C(=O)c1c(O)c3c(c(O)c1C2=O)C[C@@](O)(C(=O)CO)C[C@@H]3O[C@H]1C[C@H](N)[C@H](O)[C@H](C)O1 [Doxorubicin], the Bliss interaction score [1] is reported as -0.111, the Bliss interaction score [2] is reported as 0.0343 and the Bliss interaction score [3] is reported as -0.0552. For the same compound, the Bliss interaction score [4] was 0.084.
`CC1=C(C(=O)O)N2C(=O)[C@@H](NC(=O)[C@H](N)c3ccccc3)[C@H]2SC1` [Cephalexin] + C[C@@H]1O[C@@H]1P(=O)(O)O [Fosfomycin] gave a Bliss interaction score [1] of -0.111, a Bliss interaction score [2] of 0.038 and a Bliss interaction score [3] of 0.134. The Bliss interaction score [4] was -0.0491.
